Values joined by “and” are separate entries in the source; they are usually repeats but may differ in a detail not shown here. Identical values can stand only once. Where no end group is shown, it is not given here. The star is where a group is joined. Cbz = O=C(OCc1ccccc1)*
Key:
[1] = system: sACE (human ACE); settings: cited from earlier work
Excerpt: Due to the C‐domain's poorer hydrolysis of Aβ we can infer that the C‐domain appears ...

[2] = system: CC‐sACE; experiment: Aβ(4–10)Q hydrolysis by CC‐sACE, fluorogenic assay; assay type: biochemical, human; settings: Hepes pH 7.5, 37 °C, 45 min, fluorescence
Excerpt: (§1) Fluorogenic substrates designed around the established N‐terminal Asp7‐Ser8 cleavage site of the full‐length Aβ(1–42) were used to develop a higher throughput assay. There are two variations of the short fluorogenic peptides: Aβ(4–10)Q (Abz‐FRHDSG(Q)‐EDDnp) which has an N‐terminal Abz donor and a C‐terminal EDDnp quencher group attached to an additional Gln residue. The second peptide, Aβ(4–10)Y (Abz‐FRHDSG‐(NT)) has a different quencher molecule, NT, which substitutes for the naturally occurring Tyr residue.
Hydrolysis of the fluorogenic peptide Abz‐FRHDSG(Q)‐EDDnp (Aβ(4–10)Q, obtained from A. Carmona, Universidade Federal de São Paulo, Brazil) was performed in Hepes buffer (50 mM Hepes pH 7.5, 100 mM NaCl, 10 μM ZnSO4 buffer) with 150 μL enzyme (at final concentrations within 10% hydrolysis of total substrate; see Table 2) and equal volume of substrate ranging from 0 to 30 μM. […] The baseline fluorescence was at time zero and then the substrate was incubated at 37 °C and fluorescence read at the 45 min time point on a Cary Eclipse spectrofluorimeter (Varian Inc.) at λex = 320 nm and λem = 420 nm. Again, kinetic constants were calculated using the Michaelis–Menten method with […] […] The detected fluorescence was converted to picamoles product formed through the slope of a calibration curve of Abz‐Gly. […]
Statistical analysis of the data was determined by Student's t test. […]

[3] = biological target: T1, sACE (Homo sapiens, UniProt P12821); experiment: Aβ(4–10)Q hydrolysis by sACE, fluorogenic assay; assay type: biochemical; settings: fluorescence λex 320 nm, λem 420 nm, 50 mM Hepes pH 7.5, 100 mM NaCl, 10 μM ZnSO4, substrate 0 to 30 μM, 45 min, 37 °C, enzyme 1.50 pmol, n = 3
T1 construct: made in house; host or cells: CHO cells; purified from cell lysate
Excerpt: as §1
(§2) Hydrolysis of the fluorogenic peptide Abz‐FRHDSG(Q)‐EDDnp (Aβ(4–10)Q, obtained from A. Carmona, Universidade Federal de São Paulo, Brazil) was performed in Hepes buffer (50 mM Hepes pH 7.5, 100 mM NaCl, 10 μM ZnSO4 buffer) with 150 μL enzyme (at final concentrations within 10% hydrolysis of total substrate; see Table 2) and equal volume of substrate ranging from 0 to 30 μM. The assay is a modified form of the continuous assay 7 where the assay is set up on ice in triplicate in a 96‐well plate. The baseline fluorescence was at time zero and then the substrate was incubated at 37 °C and fluorescence read at the 45 min time point on a Cary Eclipse spectrofluorimeter (Varian Inc.) at λex = 320 nm and λem = 420 nm. Again, kinetic constants were calculated using the Michaelis–Menten method with […] PRISM software (v4.01, GraphPad Prism®). The detected fluorescence was converted to picamoles product formed through the slope of a calibration curve of Abz‐Gly. A correction curve was also applied to correct the data for the inner filter effect 70.
(§3) Statistical analysis of the data was determined by Student's t test. Differences with P < 0.05 were considered statistically significant. Fractional error was calculated for the k cat/K m ratio with the following equation: ΔZ=ZΔa/a^2+Δb/b^2 where Z represents the mean k cat/K m and ΔZ represents the fractional error. The Δa represents the SEM of the mean k cat (a). Similarly, Δb represents the SEM of the mean K m (b).

[4] = biological target: T2, Ndom (soluble form of the N‐domain of sACE) (Homo sapiens, UniProt P12821); experiment: Aβ(4–10)Q hydrolysis by Ndom, fluorogenic assay; assay type: biochemical; settings: fluorescence λex 320 nm, λem 420 nm, 50 mM Hepes pH 7.5, 100 mM NaCl, 10 μM ZnSO4, substrate 0 to 30 μM, 45 min, 37 °C, enzyme 0.60 pmol, n = 3
T2 construct: made in house; host or cells: CHO cells
Excerpt: as §1, §2, §3

[5] = biological target: T3, C‐sACE (Homo sapiens, UniProt P12821, H390K/H394K); experiment: Aβ(4–10)Q hydrolysis by C‐sACE, fluorogenic assay; assay type: biochemical; settings: fluorescence λex 320 nm, λem 420 nm, 50 mM Hepes pH 7.5, 100 mM NaCl, 10 μM ZnSO4, substrate 0 to 30 μM, 45 min, 37 °C, enzyme 1.50 pmol, n = 3
T3 construct: Both constructs have the complete signal, transmembrane and stalk region corresponding to full‐length sACE; made in house; host or cells: CHO cells; purified from cell lysate
Excerpt: as §1, §2, §3

[6] = system: ACE variants; experiment: Cleavage‐site analysis by MALDI‐TOF MS, kinetic assay conditions; assay type: biochemical, human; settings: MALDI‐TOF MS of products within kinetic assay conditions; Aβ(1–16): all ACE variants except Cdom; Aβ(4–10) peptides: Cdom and CC‐sACE not analysed
Procedure: The mass spectrometry was analysed at the Centre for Proteomic and Genomic Research (Cape Town, South Africa). Briefly, the collected peptides were spotted onto a 10 mg·mL^−1 α‐cyano‐4‐hydroxycinnamic acid matrix (Fluka, USA) in 80% ACN, 0.2% TFA for a final concentration of 5 mg·mL^−1 matrix in 40% ACN, 0.1% TFA, 10 mM NH4H2PO4. Mass spectrometry was performed with a 4800 MALDI‐TOF/TOF (Applied Biosytems) with all spectra recorded in positive reflector mode. Spectra were generated with 400 laser shots/spectrum at a laser intensity of 3800 (arbitrary units) with a grid voltage of 16 kV.

[7] = biological target: T1, sACE; experiment: Interdomain cooperativity in hydrolysis of Aβ substrates; assay type: biochemical; settings: two domains of sACE, truncated and full‐length constructs compared
Procedure: Mixtures were separated on a Poroshell 120 EC‐18 column with a 2.7 μm pore size. The reaction consists of 25 μL substrate incubated with 25 μL enzyme for 15 min at 37 °C and was stopped with the addition of 10 μL of 0.25% trifluoroacetic acid (TFA). The total reaction (60 μL) was cleared of contaminants on a spin column (GHP Nanosep® MF Centrifugal Device 0.45 μm pore size) and run on the HPLC. Kinetic parameters were determined through the fitting of initial rates to the Michaelis–Menten equation with […] PRISM software (v 4.01, GraphPad Prism®).
The reaction was incubated for 15 min at 37 °C and stopped with the addition of 10 μL 0.25% TFA to make up a total volume of 60 μL. The reactions were performed in triplicate and 50 μL injections were analysed via HPLC (Agilent Technologies) across a gradient of 0.1% TFA and 2% ACN in water to 0.1% TFA, 95% ACN. A calibration curve was set up to convert the product peak area to picomoles product formed, through the complete hydrolysis of the substrate with the N‐domain. […] Kinetic constants were calculated using the Michaelis–Menten method using […] […]
The assay is a modified form of the continuous assay 7 where the assay is set up on ice in triplicate in a 96‐well plate. The baseline fluorescence was at time zero and then the substrate was incubated at 37 °C and fluorescence read at the 45 min time point on a Cary Eclipse spectrofluorimeter (Varian Inc.) at λex = 320 nm and λem = 420 nm. Again, kinetic constants were calculated using the Michaelis–Menten method with […] […] The detected fluorescence was converted to picamoles product formed through the slope of a calibration curve of Abz‐Gly. […]
An alternative fluorogenic peptide, Abz‐FRHDSG‐(NT) (BIOPEP™ South Africa) was assayed, with 100 μL enzyme and 100 μL substrate (at a final enzyme concentration within 10% hydrolysis of total substrate; see Table 3) as above, in 96‐well plates. The samples were read at the 5 min time point on a Cary Eclipse spectrofluorimeter (Varian Inc.) at λex = 320 nm and λem = 420 nm. Kinetic constants, inner filter effect and standard curves were calculated as above.

[8] = biological target: T4, N‐sACE (Homo sapiens, UniProt P12821, H988K/H992K); experiment: Aβ(4–10)Q hydrolysis by N‐sACE, fluorogenic assay; assay type: biochemical; settings: fluorescence λex 320 nm, λem 420 nm, 50 mM Hepes pH 7.5, 100 mM NaCl, 10 μM ZnSO4, substrate 0 to 30 μM, 45 min, 37 °C, enzyme 9.00 pmol, n = 3
T4 construct: Both constructs have the complete signal, transmembrane and stalk region corresponding to full‐length sACE; made in house; host or cells: CHO cells; purified from cell lysate
Excerpt: as §1, §2, §3

[9] = biological target: human wild-type somatic ACE (sACE) (human) (UniProt P12821)
[10] = biological target: full-length domain knockout variant of human sACE with only the C-domain active (C-sACE) (human) (UniProt P12821)
[11] = biological target: full-length domain knockout variant of human sACE with only the N-domain active (N-sACE) (human) (UniProt P12821)
[12] = biological target: soluble form of the N-domain of human sACE (Ndom) (human) (UniProt P12821)
[13] = system: ACE; settings: recombinant truncated domains only; cited from earlier work
Excerpt: Based on our results and the synergistic effect that the C‐domain exerts on the N‐domain, the C‐domain activity is likely to be important in vivo. […] This observation is supported by the architecture of the central cavity found in tACE (human testis ACE, C‐domain equivalent) crystal structure and the chloride‐dependent substrate interactions 54, 57. The latter study, ...

[14] = system: ACE; settings: full‐length Aβ(1–42); cited from earlier work
Excerpt: This type of cleavage has been observed in previous studies with other amyloid peptides 23, 24 and was also observed in the crystal structures of the N‐domain in complex with all the Aβ fragments tested. Based on the MS analysis of th ...

[15] = mean ± fractional error of the ratio

T4 sequence (P12821 30-1306 H988K/H992K): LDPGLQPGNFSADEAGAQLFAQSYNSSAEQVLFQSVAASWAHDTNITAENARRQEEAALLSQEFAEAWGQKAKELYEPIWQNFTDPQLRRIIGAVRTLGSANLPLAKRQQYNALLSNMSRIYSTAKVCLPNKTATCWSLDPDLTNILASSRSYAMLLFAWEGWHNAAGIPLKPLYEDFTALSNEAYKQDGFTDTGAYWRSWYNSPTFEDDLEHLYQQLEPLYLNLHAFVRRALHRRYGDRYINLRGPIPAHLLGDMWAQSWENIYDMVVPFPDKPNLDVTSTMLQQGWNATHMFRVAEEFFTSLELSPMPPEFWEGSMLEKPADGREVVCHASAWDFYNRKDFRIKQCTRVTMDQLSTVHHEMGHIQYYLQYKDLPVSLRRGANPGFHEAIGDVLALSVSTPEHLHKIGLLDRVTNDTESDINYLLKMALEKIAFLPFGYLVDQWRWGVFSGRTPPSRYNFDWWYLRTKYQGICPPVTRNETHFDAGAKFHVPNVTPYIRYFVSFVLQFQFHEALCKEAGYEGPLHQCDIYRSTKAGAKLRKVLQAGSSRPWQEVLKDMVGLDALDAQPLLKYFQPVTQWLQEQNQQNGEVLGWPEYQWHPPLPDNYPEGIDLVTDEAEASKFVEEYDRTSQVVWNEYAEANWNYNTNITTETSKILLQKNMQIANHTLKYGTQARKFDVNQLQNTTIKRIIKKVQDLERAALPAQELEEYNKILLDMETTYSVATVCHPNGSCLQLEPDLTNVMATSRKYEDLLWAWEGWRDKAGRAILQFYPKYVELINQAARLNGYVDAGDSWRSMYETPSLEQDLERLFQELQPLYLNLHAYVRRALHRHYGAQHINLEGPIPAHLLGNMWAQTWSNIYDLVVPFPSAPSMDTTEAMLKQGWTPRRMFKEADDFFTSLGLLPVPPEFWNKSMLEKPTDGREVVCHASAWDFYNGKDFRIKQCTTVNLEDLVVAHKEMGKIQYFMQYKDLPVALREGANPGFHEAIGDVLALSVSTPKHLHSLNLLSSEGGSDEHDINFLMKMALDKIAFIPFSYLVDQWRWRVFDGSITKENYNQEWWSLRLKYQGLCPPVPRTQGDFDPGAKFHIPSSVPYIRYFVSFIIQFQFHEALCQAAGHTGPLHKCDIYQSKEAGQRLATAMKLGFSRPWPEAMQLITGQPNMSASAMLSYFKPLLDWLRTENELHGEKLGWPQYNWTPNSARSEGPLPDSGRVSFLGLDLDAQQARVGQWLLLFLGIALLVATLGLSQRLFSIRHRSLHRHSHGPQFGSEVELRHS
T3 sequence (P12821 30-1306 H390K/H394K): as the sequence (P12821 30-1306 H988K/H992K) above, with H361K, H365K, K959H, K963H counted along it
T2 sequence (P12821 30-658): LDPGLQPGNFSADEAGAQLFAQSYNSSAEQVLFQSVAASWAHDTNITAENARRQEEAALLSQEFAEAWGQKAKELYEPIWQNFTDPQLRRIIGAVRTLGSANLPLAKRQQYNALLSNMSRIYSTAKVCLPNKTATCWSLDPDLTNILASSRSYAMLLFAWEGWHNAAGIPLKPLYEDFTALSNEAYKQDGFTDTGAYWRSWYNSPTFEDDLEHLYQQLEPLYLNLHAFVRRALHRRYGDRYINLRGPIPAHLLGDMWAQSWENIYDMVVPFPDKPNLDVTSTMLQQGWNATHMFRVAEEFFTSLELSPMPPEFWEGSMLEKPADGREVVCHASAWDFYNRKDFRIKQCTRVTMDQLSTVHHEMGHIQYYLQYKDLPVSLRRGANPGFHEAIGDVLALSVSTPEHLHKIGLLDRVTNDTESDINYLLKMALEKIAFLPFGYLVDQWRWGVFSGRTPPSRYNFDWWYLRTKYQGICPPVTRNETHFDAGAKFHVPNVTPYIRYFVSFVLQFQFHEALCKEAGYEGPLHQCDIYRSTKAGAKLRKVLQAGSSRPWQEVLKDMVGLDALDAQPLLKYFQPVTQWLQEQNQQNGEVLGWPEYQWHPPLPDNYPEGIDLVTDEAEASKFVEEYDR
T1 sequence (P12821 30-1306): as the sequence (P12821 30-1306 H988K/H992K) above, with K959H, K963H counted along it
Sequence of CC‐sACE (P12821 643-1222 limits assumed): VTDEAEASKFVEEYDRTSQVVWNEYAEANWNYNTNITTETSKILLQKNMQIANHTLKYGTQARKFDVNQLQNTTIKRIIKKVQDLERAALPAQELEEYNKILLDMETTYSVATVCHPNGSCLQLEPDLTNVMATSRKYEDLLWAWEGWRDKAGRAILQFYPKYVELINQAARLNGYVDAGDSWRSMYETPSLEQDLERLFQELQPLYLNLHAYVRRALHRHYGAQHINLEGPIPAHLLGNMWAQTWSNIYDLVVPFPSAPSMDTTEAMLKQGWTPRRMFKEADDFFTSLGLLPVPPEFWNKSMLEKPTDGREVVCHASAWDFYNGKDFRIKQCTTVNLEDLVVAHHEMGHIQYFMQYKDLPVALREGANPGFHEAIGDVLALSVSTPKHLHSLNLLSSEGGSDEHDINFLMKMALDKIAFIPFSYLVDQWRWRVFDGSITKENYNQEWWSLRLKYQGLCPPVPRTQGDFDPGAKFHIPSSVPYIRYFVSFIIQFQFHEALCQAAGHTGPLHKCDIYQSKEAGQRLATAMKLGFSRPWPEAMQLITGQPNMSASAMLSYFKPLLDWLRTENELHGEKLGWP
Sequence of full-length domain knockout variant of human sACE with only the N-domain active (N-sACE) (human) (P12821 other isoform, or with tags, fused parts or gaps, change not shown): as the sequence (P12821 30-1306 H988K/H992K) above
Sequence of full-length domain knockout variant of human sACE with only the C-domain active (C-sACE) (human) (P12821 other isoform, or with tags, fused parts or gaps, change not shown): as the sequence (P12821 30-1306 H988K/H992K) above, with H361K, H365K, K959H, K963H counted along it
Sequence of soluble form of the N-domain of human sACE (Ndom) (human) (P12821 30-658): as the sequence (P12821 30-658) above
Sequence of human wild-type somatic ACE (sACE) (human) (P12821 30-1306): as the sequence (P12821 30-1306 H988K/H992K) above, with K959H, K963H counted along it

For (Abz)‐LFK(Dnp)‐OH, the “effect of the presence of the N‐domain on hydrolysis” value [1] is given as “regulatory effects”.
For “Abz‐FRHDSG(Q)‐EDDnp [Aβ(4–10)Q, fluorogenic Aβ(4–10) peptide, Abz donor, EDDnp quencher attached to additional Gln]”, the “hydrolysis by CC‐sACE” value [2] was “almost no hydrolysis”, the K m ([3]; mean ± SEM) was 22.90 ± 3.45 µM and the V max ([3]; mean ± SEM) was 0.09 ± 0.01. For the same substance, the k cat ([3]; mean ± SEM) was 0.06 ± 0.01 s⁻¹, the “k cat/K m” value [3, 15] was 0.03 ± 0.01 M^−1·s^−1 × 10^5 and the K m ([4]; mean ± SEM) was 22.20 ± 3.23 µM. The V max ([4]; mean ± SEM) was 0.29 ± 0.02, the k cat ([4]; mean ± SEM) was 0.48 ± 0.04 s⁻¹ and the “k cat/K m” value [4, 15] was 0.22 M^−1·s^−1 × 10^5 and 0.22 ± 0.04 M^−1·s^−1 × 10^5. The K m ([5]; mean ± SEM) was 11.50 ± 3.03 µM, the V max ([5]; mean ± SEM) was 0.12 ± 0.01 and the k cat ([5]; mean ± SEM) was 0.08 ± 0.01 s⁻¹. The “k cat/K m” value [5, 15] was 0.08 ± 0.02 M^−1·s^−1 × 10^5, the “cleavage site (bond)” value [6] was “Asp7‐Ser8” and the interdomain cooperativity [7] was “This is also true for the Aβ(4–10)Q substrate, although to a much lesser extent”. For the same substance, the K m ([8]; mean ± SEM) was 42.43 ± 3.92 µM, the V max ([8]; mean ± SEM) was 3.23 ± 0.20 and the k cat ([8]; mean ± SEM) was 0.36 ± 0.02 s⁻¹. The “k cat/K m” value [8, 15] was 0.09 M^−1·s^−1 × 10^5 and 0.09 ± 0.01 M^−1·s^−1 × 10^5.
Aβ(1–16) (H-…-OH) (peptide) showed a Km of hydrolysis of Aβ(1–16) (HPLC assay, 15 min, 37 °C, 50 mM Hepes pH 7.5, 100 mM NaCl, 10 μM ZnSO4) [9] of 35.2 μM, a Km of hydrolysis of Aβ(1–16) (HPLC assay, 15 min, 37 °C, 50 mM Hepes pH 7.5, 100 mM NaCl, 10 μM ZnSO4) [10] of 42.4 μM and a Km of hydrolysis of Aβ(1–16) (HPLC assay, 15 min, 37 °C, 50 mM Hepes pH 7.5, 100 mM NaCl, 10 μM ZnSO4) [11] of 34.2 μM. For the same substance, the Km of hydrolysis of Aβ(1–16) (HPLC assay, 15 min, 37 °C, 50 mM Hepes pH 7.5, 100 mM NaCl, 10 μM ZnSO4) [12] was 21.4 μM.
In the case of Aβ(1–40): larger Aβ(1–40) substrate, the “competition with hippuryl‐L‐histidyl‐ L‐leucine” value [13] is listed as “did not out‐compete”.
For Aβ(1–42): full‐length Aβ(1–42), the cleavage sites [14] is listed as “multiple cleavage sites”.
For Cbz-Phe-His-Leu [ACE substrate], the “effect of the presence of the N‐domain on hydrolysis” value [1] is listed as “regulatory effects”.

— paper PMC4950319, “Kinetic and structural characterization of amyloid‐β peptide hydrolysis by human angiotensin‐1‐converting enzyme” (The Febs Journal, 2016)
